Activity calls are given as the source filed them. No cut-off for these calls is given here.
Key:
HeLa = experiment: Antiproliferative activity against human HeLa cells after 48 hrs by MTT assay; assay type: functional, cell-based
K562 = experiment: Antiproliferative activity against human K562 cells after 48 hrs by MTT assay; assay type: functional, cell-based; conditions: K562, 48 h
A549 = experiment: Antiproliferative activity against human A549 cells after 48 hrs by MTT assay; assay type: functional, cell-based; conditions: A549, 48 h
DNA [1] = experiment: Binding affinity to calf thymus DNA in phosphate buffer at pH 7.4 at 5 x 10 '-5 M by fluorescence spectroscopy; assay type: nucleic-acid assay; conditions: Bos taurus
[2] = Binding affinity to G-quadruplex DNA (unknown origin) in phosphate buffer at pH 7.4 at 5 x 10 '-5 M by fluorescence spectroscopy
[3] = Binding affinity to G-quadruplex DNA (unknown origin) in phosphate buffer at pH 7.4 assessed as hypochromicity at 5 x 10 '-5 M by Uv-Vis spectroscopy
DNA [4] = experiment: Binding affinity to calf thymus DNA in phosphate buffer at pH 7.4 at 2 x 10 '-5 M by CD spectra analysis; assay type: nucleic-acid assay; conditions: Bos taurus
DNA [5] = experiment: Binding affinity to calf thymus DNA in phosphate buffer at pH 7.4 assessed as hypochromicity at 5 x 10 '-5 M by Uv-Vis spectroscopy; assay type: nucleic-acid assay; conditions: Bos taurus
[6] = Binding affinity to G-quadruplex DNA (unknown origin) in phosphate buffer at pH 7.4 at 5 x 10 '-5 M by Uv-Vis spectroscopy
DNA [7] = experiment: Binding affinity to calf thymus DNA in phosphate buffer at pH 7.4 at 5 x 10 '-5 M by Uv-Vis spectroscopy; assay type: nucleic-acid assay; conditions: Bos taurus
[8] = Binding affinity to G-quadruplex DNA (unknown origin) in phosphate buffer at pH 7.4 at 2 x 10 '-5 M by CD spectra analysis

Which IC50 (HeLa) does the source give for `CN(C)CCN1C(=O)c2ccc3c4c(c(NCCOCCOCCN5CCN(C)CC5)cc(c24)C1=O)C(=O)N(CCN(C)C)C3=O` here?
The IC50 was 9.8 µM.

What about the IC50 (K562) of the same molecule?
The IC50 was 2.78 µM.

And the IC50 (A549)?
Its IC50 is 6.87 µM.

For `CN(C)CCN1C(=O)c2ccc3c4c(c(NCCOCCOCCOCCN5CCN(C)CC5)cc(c24)C1=O)C(=O)N(CCN(C)C)C3=O`, which IC50 (HeLa) is on record?
The IC50 was 2.88 µM.

What about the IC50 (K562) of the same molecule?
Its IC50 is 3.63 µM.

What about the IC50 (A549) of the same molecule?
The IC50 was 7.42 µM.

Which IC50 (HeLa) does the source give for `CN(C)CCN1C(=O)c2ccc3c4c(c(NCCOCCOCCOCCN5CCCCC5)cc(c24)C1=O)C(=O)N(CCN(C)C)C3=O` here?
The IC50 was 4.06 µM.

What about the IC50 (K562) of the same molecule?
Its IC50 is 2.94 µM.

And the IC50 (A549)?
The IC50 was 6.87 µM.

Which IC50 (HeLa) does the source give for `CN(C)CCN1C(=O)c2ccc3c4c(c(NCCOCCN5CCCCC5)cc(c24)C1=O)C(=O)N(CCN(C)C)C3=O` here?
The IC50 was 2.08 µM.

And the IC50 (K562)?
Its IC50 is 0.61 µM.

What about the IC50 (A549) of the same molecule?
The IC50 was 2.19 µM.

Which IC50 (HeLa) does the source give for `CN(C)CCN1C(=O)c2ccc3c4c(c(NCCOCCOCCOCCN5CCCC5)cc(c24)C1=O)C(=O)N(CCN(C)C)C3=O` here?
The IC50 was 5.17 µM.

And the IC50 (K562)?
The IC50 was 7.1 µM.

What about the IC50 (A549) of the same molecule?
Its IC50 is 7.12 µM.

Which IC50 (HeLa) does the source give for `CN(C)CCN1C(=O)c2ccc3c4c(c(NCCOCCOCCOCCN5CCOCC5)cc(c24)C1=O)C(=O)N(CCN(C)C)C3=O` here?
Its IC50 is 3.8 µM.

And the IC50 (K562)?
Its IC50 is 5.79 µM.

What about the K (DNA [1]) of the same molecule?
The K was 3.8 ×10⁵ /M.

And the K [2]?
Its K is 1.5 ×10⁴ /M.

And the Activity [3]?
The Activity was 9%.

And the Activity (DNA [4])?
The Activity was “Active”.

And the Activity (DNA [5])?
Its Activity is 25%.

And the Kb [6]?
The Kb was 1.5 ×10⁴ /M.

And the Kb (DNA [7])?
Its Kb is 2.3 ×10⁵ /M.

And the IC50 (A549)?
Its IC50 is 2.53 µM.

And the Activity [8]?
Its Activity is “Active”.

With `CN(C)CCN1C(=O)c2ccc3c4c(c(NCCOCCN5CCN(C)CC5)cc(c24)C1=O)C(=O)N(CCN(C)C)C3=O` as the molecule, how does the IC50 (HeLa) read?
The IC50 was 5.19 µM.

What about the IC50 (K562) of the same molecule?
The IC50 was 3.03 µM.

What about the IC50 (A549) of the same molecule?
Its IC50 is 2.94 µM.

Which IC50 (HeLa) does the source give for `CN(C)CCN1C(=O)c2ccc3c4c(c(NCCOCCOCCN5CCCCC5)cc(c24)C1=O)C(=O)N(CCN(C)C)C3=O` here?
Its IC50 is 5.95 µM.

What about the IC50 (K562) of the same molecule?
Its IC50 is 1.24 µM.

What about the IC50 (A549) of the same molecule?
The IC50 was 2.93 µM.

With `CN(C)CCN1C(=O)c2ccc3c4c(c(NCCOCCOCCN5CCOCC5)cc(c24)C1=O)C(=O)N(CCN(C)C)C3=O` as the molecule, how does the IC50 (HeLa) read?
The IC50 was 5.93 µM.

And the IC50 (K562)?
The IC50 was 1.48 µM.

And the K (DNA [1])?
The K was 5.4 ×10⁵ /M.

And the K [2]?
Its K is 2.3 ×10⁴ /M.

What about the Activity [3] of the same molecule?
Its Activity is 11%.

What about the Activity (DNA [4]) of the same molecule?
The Activity was “Active”.

And the Activity (DNA [5])?
The Activity was 28%.

And the Kb [6]?
The Kb was 4.8 ×10⁴ /M.

And the Kb (DNA [7])?
Its Kb is 4.5 ×10⁵ /M.

What about the IC50 (A549) of the same molecule?
The IC50 was 2.83 µM.

What about the Activity [8] of the same molecule?
The Activity was “Active”.

For `CN(C)CCN1C(=O)c2ccc3c4c(c(NCCOCCOCCN5CCCC5)cc(c24)C1=O)C(=O)N(CCN(C)C)C3=O`, which IC50 (HeLa) is on record?
Its IC50 is 5 µM.

And the IC50 (K562)?
The IC50 was 2.52 µM.

What about the IC50 (A549) of the same molecule?
Its IC50 is 2.91 µM.

Which IC50 (HeLa) does the source give for `CN(C)CCN1C(=O)c2ccc3c4c(c(NCCOCCN5CCOCC5)cc(c24)C1=O)C(=O)N(CCN(C)C)C3=O` here?
Its IC50 is 2.61 µM.

And the IC50 (K562)?
The IC50 was 0.67 µM.

And the K (DNA [1])?
The K was 3.9 ×10⁶ /M.

What about the K [2] of the same molecule?
Its K is 6.8 ×10⁵ /M.

What about the Activity [3] of the same molecule?
The Activity was 13%.

And the Activity (DNA [4])?
Its Activity is “Active”.

And the Activity (DNA [5])?
The Activity was 31%.

And the Kb [6]?
The Kb was 2.8 ×10⁵ /M.

What about the Kb (DNA [7]) of the same molecule?
Its Kb is 2.1 ×10⁶ /M.

And the IC50 (A549)?
Its IC50 is 2.95 µM.

What about the Activity [8] of the same molecule?
Its Activity is “Active”.

Which results are given for `CN(C)CCN1C(=O)c2ccc3c4c(c(NCCOCCN5CCCC5)cc(c24)C1=O)C(=O)N(CCN(C)C)C3=O`?
IC50 (HeLa): 2.15 µM; IC50 (K562): 0.59 µM; IC50 (A549): 2.03 µM

Reference: ChEMBL document CHEMBL2424577, “Cytotoxicity and DNA-binding property of water-soluble naphthalene diimide derivatives bearing 2-oligoethoxy ethanamine side chain end-labeled with tertiary amino groups” (Med Chem Res, 2013)
